In experiment [1] the target is T1, human DGKα (Homo sapiens, UniProt P23743).
T1 construct: TVMV protease cleavage site (C); Hexa-His (C); made in house; host or cells: Sf9 insect cells (baculovirus, Bac-to-Bac)
As to the kind of experiment: DGKα LIPGLO assay (extruded liposome substrate), in vitro DGK inhibition. The format is biochemical. The note with it: liposome (LIPGLO) assay; read-out: DGKa LIPGLO IC50.

Experiment [2] concerns the target T2, human DGKζ (Homo sapiens, UniProt Q13574).
T2 construct: TVMV protease cleavage site (C); Hexa-His (C); made in house; host or cells: Sf9 insect cells (baculovirus, Bac-to-Bac)
Briefly: DGKζ LIPGLO assay (extruded liposome substrate), in vitro DGK inhibition. The format is biochemical. The note with it: liposome (LIPGLO) assay; read-out: DGKz LIPGLO IC50.

T1 sequence (P23743 with tags, fused parts or gaps): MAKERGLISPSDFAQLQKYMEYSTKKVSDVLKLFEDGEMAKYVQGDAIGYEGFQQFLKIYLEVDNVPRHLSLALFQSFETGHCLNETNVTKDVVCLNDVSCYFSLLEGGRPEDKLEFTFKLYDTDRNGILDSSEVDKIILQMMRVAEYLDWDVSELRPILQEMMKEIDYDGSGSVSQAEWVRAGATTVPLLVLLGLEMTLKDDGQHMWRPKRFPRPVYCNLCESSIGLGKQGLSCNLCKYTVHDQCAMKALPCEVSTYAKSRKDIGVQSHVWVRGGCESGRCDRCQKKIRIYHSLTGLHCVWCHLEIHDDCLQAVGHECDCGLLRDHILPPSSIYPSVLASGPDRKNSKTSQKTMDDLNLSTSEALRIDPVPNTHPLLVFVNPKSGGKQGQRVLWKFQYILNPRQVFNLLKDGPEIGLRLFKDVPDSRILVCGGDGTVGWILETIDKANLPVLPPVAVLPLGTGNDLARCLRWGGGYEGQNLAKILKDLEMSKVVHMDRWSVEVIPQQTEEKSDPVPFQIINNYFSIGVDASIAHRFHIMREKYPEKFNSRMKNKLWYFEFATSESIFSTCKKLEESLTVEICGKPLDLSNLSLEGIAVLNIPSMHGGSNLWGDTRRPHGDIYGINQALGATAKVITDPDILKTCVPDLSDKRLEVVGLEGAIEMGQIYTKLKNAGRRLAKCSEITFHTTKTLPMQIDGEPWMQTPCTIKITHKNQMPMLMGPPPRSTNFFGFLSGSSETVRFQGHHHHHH
T2 sequence (Q13574 with tags, fused parts or gaps isoform Q13574-4): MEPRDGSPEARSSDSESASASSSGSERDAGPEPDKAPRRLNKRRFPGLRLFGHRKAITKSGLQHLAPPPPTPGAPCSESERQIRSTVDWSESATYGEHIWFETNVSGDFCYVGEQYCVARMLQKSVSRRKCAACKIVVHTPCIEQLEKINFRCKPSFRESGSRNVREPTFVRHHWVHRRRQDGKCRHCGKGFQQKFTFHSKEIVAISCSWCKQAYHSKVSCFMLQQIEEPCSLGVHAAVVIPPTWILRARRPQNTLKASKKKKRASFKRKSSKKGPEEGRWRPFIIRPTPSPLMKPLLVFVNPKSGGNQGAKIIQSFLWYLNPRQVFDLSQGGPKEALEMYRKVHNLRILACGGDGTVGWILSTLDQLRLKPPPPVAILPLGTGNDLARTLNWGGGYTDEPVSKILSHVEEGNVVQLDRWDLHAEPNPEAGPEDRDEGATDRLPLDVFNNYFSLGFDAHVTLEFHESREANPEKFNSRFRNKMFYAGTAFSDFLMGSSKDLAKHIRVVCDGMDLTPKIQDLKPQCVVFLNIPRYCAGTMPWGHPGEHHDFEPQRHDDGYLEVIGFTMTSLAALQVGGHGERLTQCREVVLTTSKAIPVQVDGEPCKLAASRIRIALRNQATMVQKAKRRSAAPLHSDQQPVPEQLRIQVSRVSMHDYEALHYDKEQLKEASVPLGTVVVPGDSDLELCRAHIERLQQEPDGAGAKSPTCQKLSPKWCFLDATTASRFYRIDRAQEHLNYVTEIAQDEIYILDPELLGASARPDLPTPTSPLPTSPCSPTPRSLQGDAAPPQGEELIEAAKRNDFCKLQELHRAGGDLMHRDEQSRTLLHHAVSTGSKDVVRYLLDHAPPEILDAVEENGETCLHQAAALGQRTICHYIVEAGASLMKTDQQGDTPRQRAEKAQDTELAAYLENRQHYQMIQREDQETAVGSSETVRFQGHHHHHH

On to `CC(c1cc(F)c(F)c(F)c1)N1C[C@H](C)N(c2cc(=O)n(C)c3ccc(C#N)nc23)C[C@H]1C` (single isomer, unassigned) [Example 1241], for which the IC50 is 3.8 µM in experiment [1] and 0.6 µM in experiment [2].

`Cc1nc2c(C(C)N3C[C@H](C)N(c4cc(=O)n(C)c5ccc(C#N)nc45)C[C@H]3C)cccc2o1` (single isomer, unassigned) [Example 1260]: the IC50 amounted to 54 µM in experiment [1] and 0.086 µM in experiment [2].

Turning to `Cc1nc2c(C(C)N3C[C@H](C)N(c4cc(=O)n(C)c5ccc(C#N)nc45)C[C@H]3C)cccc2o1` (single isomer, unassigned) [Example 1261], the IC50 in experiment [1] is 4.2 µM; in experiment [2], 1.1 µM.

Take `Cc1nc2ccc(C(C)N3C[C@H](C)N(c4cc(=O)n(C)c5ccc(C#N)nc45)C[C@H]3C)cc2s1` (single isomer, unassigned) [Example 1263]: the results for the IC50 in experiment [1] and in experiment [2] were 0.95 µM and 0.15 µM, respectively.

Consider `Cc1nc2ccc(C(C)N3C[C@H](C)N(c4cc(=O)n(C)c5ccc(C#N)nc45)C[C@H]3C)cc2s1` (single isomer, unassigned) [Example 1264], for which the IC50 in experiment [1] worked out at 10 µM; in experiment [2], 3.6 µM.

With `CC(c1cccc(OC(F)F)c1)N1C[C@H](C)N(c2cc(=O)n(C)c3ccc(C#N)nc23)C[C@H]1C` (single isomer, unassigned) [Example 1271], the IC50 turned out to be 0.15 µM in experiment [1] and 0.03 µM in experiment [2].

As to `CC(c1cccc(OC(F)F)c1)N1C[C@H](C)N(c2cc(=O)n(C)c3ccc(C#N)nc23)C[C@H]1C` (single isomer, unassigned) [Example 1272], the IC50 in experiment [1] is 5 µM; in experiment [2] it was 0.66 µM.

As to `C[C@@H]1CN(c2cc(=O)n(C)c3ccc(C#N)nc23)[C@@H](C)CN1C(c1ccc(F)cc1)c1ccc(P(C)(C)=O)cc1` (single isomer, unassigned) [Example 1293], the IC50 worked out at 100 µM in experiment [1] and 6.1 µM in experiment [2].

In the case of `CC(c1ccc(P(C)(C)=O)cc1)N1C[C@H](C)N(c2c(C#N)c(=O)n(C)c3ccc(C#N)nc23)C[C@H]1C` (single isomer, unassigned) [Example 1295], the results for the IC50 in experiment [1] and in experiment [2] were 130 µM and 47 µM, respectively.

As to `C[C@@H]1CN(c2cc(=O)n(C)c3ccc(C#N)nc23)[C@@H](C)CN1C(c1ccc(F)cc1)C1CCS(=O)(=O)CC1` (single isomer, unassigned) [Example 1301], the IC50 in experiment [1] came out at 91 µM; in experiment [2] it was 3.6 µM.

`CSCC(c1ccc(F)cc1)N1C[C@H](C)N(c2cc(=O)n(C)c3ccc(C#N)nc23)C[C@H]1C` (single isomer, unassigned) [Example 1319]: the IC50 in experiment [1] was determined as 0.099 µM; in experiment [2] it was 0.61 µM.

As for `CC(c1ccc(C#N)c(OCCN(C)C)c1)N1C[C@H](C)N(c2cc(=O)n(C)c3ccc(C#N)nc23)C[C@H]1C` (single isomer, unassigned) [Example 1322], the IC50 in experiment [1] was determined as 130 µM; in experiment [2] it was 53 µM.

As for `CC(c1ccc(C#N)c(OCCN(C)C)c1)N1C[C@H](C)N(c2cc(=O)n(C)c3ccc(C#N)nc23)C[C@H]1C` (single isomer, unassigned) [Example 1323], the IC50 in experiment [1] came to 130 µM; in experiment [2] it was 7.1 µM.

On to `CC[C@@H]1CN(c2cc(=O)n(C)c3ccc(C#N)nc23)[C@@H](C)CN1C(C)c1ccc(Cl)cc1F` (single isomer, unassigned) [Example 1353], for which the IC50 came to 0.46 µM in experiment [1] and 0.51 µM in experiment [2].

For the compound `CC[C@H]1CN(C(C)c2ccc(C3CC3)cc2F)[C@H](CC)CN1c1cc(=O)n(C)c2ccc(C#N)nc12` (single isomer, unassigned) [Example 1357], the IC50 in experiment [1] was 0.12 µM; in experiment [2], 0.02 µM.

`CC[C@H]1CN(C(c2ccc(F)cc2)c2csc(C(F)(F)F)n2)[C@H](CC)CN1c1cc(=O)n(C)c2ccc(C#N)nc12` (single isomer, unassigned) [Example 1361]: the IC50 in experiment [1] and in experiment [2] was 0.011 µM each time.

Take `CC[C@H]1CN(C(c2ccc(F)cc2)c2csc(C(F)(F)F)n2)[C@H](CC)CN1c1cc(=O)n(C)c2ccc(C#N)nc12` (single isomer, unassigned) [Example 1362]: the figures for the concentration for half-maximal inhibition (IC50) in experiment [1] and in experiment [2] were 0.16 µM and 0.05 µM, respectively.

For `CC(c1ccc(OC(F)F)cc1)N1C[C@H](C)N(c2c(C#N)c(=O)n(C)c3ccc(C#N)nc23)C[C@H]1C` (single isomer, unassigned) [Example 1376], the results for the IC50 in experiment [1] and in experiment [2] were 0.84 µM and 17 µM, respectively.

As to `CC[C@H]1CN(C(C)c2cc(F)c(F)c(F)c2)[C@H](C)CN1c1cc(=O)n(C)c2ccc(C#N)nc12` (single isomer, unassigned) [Example 1382], the IC50 in experiment [1] came to 0.66 µM; in experiment [2] it was 0.06 µM.

Turning to `CCOC[C@@H]1CN(c2cc(=O)n(C)c3ccc(C#N)nc23)[C@@H](C)CN1C(C)c1ccc(OC(F)(F)F)cc1` (single isomer, unassigned) [Example 1397], the figures for the IC50 in experiment [1] and in experiment [2] were 1.3 µM and 0.054 µM, respectively.

For `CCOC[C@@H]1CN(c2cc(=O)n(C)c3ccc(C#N)nc23)[C@@H](C)CN1C(C)c1ccc(OC(F)(F)F)cc1` (single isomer, unassigned) [Example 1398], the IC50 stood at 5.5 µM in experiment [1] and 1.6 µM in experiment [2].

As to `CC[C@H]1CN(C(C)c2ccc(OC(F)(F)F)cc2)[C@H](COC)CN1c1cc(=O)n(C)c2ccc(C#N)nc12` (single isomer, unassigned) [Example 1408], the IC50 in experiment [1] is 0.019 µM; in experiment [2] it was 0.083 µM.

As for `CCC(c1ccc(OC(C)(C)C)cc1)N1C[C@H](C)N(c2cc(=O)n(C)c3ccc(C#N)nc23)C[C@H]1C` (single isomer, unassigned) [Example 1444], the IC50 in experiment [1] was 10 µM; in experiment [2], 0.48 µM.

As to `C[C@@H]1CN(C(c2ccc(F)cc2)c2ccc(F)cc2)[C@@H](C)CN1c1c(C#N)c(=O)n(C)c2ccc(Br)nc12` [Example 5, 4-((2R,5S)-4-(bis(4-fluorophenyl)methyl)-2,5-dimethylpiperazin-1-yl)-6-bromo-1-methyl-2-oxo-1,2-dihydro-1,5-naphthyridine-3-carbonitrile], the IC50 in experiment [1] was 23 µM; in experiment [2], 42 µM.

`CC(C)[C@H]1CN(c2c(C#N)c(=O)n(C)c3ccc(Br)nc23)CCN1C(c1ccc(F)cc1)c1ccc(F)cc1` [Example 11, (S)-4-(4-(bis(4-fluorophenyl)methyl)-3-isopropylpiperazin-1-yl)-6-bromo-1-methyl-2-oxo-1,2-dihydro-1,5-naphthyridine-3-carbonitrile]: the IC50 was 3.6 µM in experiment [1] and 240 µM in experiment [2].

Turning to `Cn1c(=O)c(C#N)c(N2CCN(C(c3ccc(F)cc3)c3ccc(F)cc3)C(C(=O)O)C2)c2nc(Br)ccc21` (stereo not drawn) [Example 52, 1-(bis(4-fluorophenyl)methyl)-4-(6-bromo-3-cyano-1-methyl-2-oxo-1,2-dihydro-1,5-naphthyridin-4-yl)piperazine-2-carboxylic acid], the results for the IC50 in experiment [1] and in experiment [2] were 24 µM and 150 µM, respectively.

Turning to `C[C@@H]1CN(c2c(C#N)c(=O)n(C)c3ccc(Br)nc23)CCN1C(c1ccc(Cl)cc1)c1ccc(Cl)cc1` [Example 102, (R)-4-(4-(bis(4-chlorophenyl)methyl)-3-methylpiperazin-1-yl)-6-bromo-1-methyl-2-oxo-1,2-dihydro-1,5-naphthyridine-3-carbonitrile], the values for the IC50 in experiment [1] and in experiment [2] were 2.9 µM and 8.3 µM, respectively.

Turning to `CC(C)[C@H]1CN(C(c2ccc(F)cc2)c2ccc(F)cc2)[C@@H](C)CN1c1cc(=O)n(C)c2ccc(C#N)nc12` [Example 125, 8-((2S,5S)-4-(bis(4-fluorophenyl)methyl)-2-isopropyl-5-methylpiperazin-1-yl)-5-methyl-6-oxo-5,6-dihydro-1,5-naphthyridine-2-carbonitrile], the IC50 was 36 µM in experiment [1] and 240 µM in experiment [2].

Turning to `Cn1c(=O)cc(N2CCN(C(c3ccc(F)cc3)c3ccc(F)cc3)CC2C#N)c2nc(C#N)ccc21` (stereo not drawn) [Example 145, 8-(4-(bis(4-fluorophenyl)methyl)-2-cyanopiperazin-1-yl)-5-methyl-6-oxo-5,6-dihydro-1,5-naphthyridine-2-carbonitrile], the IC50 in experiment [1] turned out to be 9 µM; in experiment [2], 23 µM.

As to `COC(=O)C1CN(C(c2ccc(F)cc2)c2ccc(F)cc2)CCN1c1c(Br)c(=O)n(C)c2ccc(C#N)nc12` (stereo not drawn) [Example 162, Methyl 4-(bis(4-fluorophenyl)methyl)-1-(3-bromo-6-cyano-1-methyl-2-oxo-1,2-dihydro-1,5-naphthyridin-4-yl)piperazine-2-carboxylate], the IC50 was 1.9 µM in experiment [1] and 2.4 µM in experiment [2].

`Cc1ncc(C(c2ccc(Cl)cc2)N2CCN(c3c(C#N)c(=O)n(C)c4ccc(C#N)nc34)C[C@H]2C)cn1` (stereo partly drawn) [Example 314, 8-((3R)-4-((4-chlorophenyl)(2-methylpyrimidin-5-yl)methyl)-3-methylpiperazin-1-yl)-5-methyl-6-oxo-5,6-dihydro-1,5-naphthyridine-2,7-dicarbonitrile]: the IC50 in experiment [1] turned out to be 8.5 µM; in experiment [2], 31 µM.

With `Cc1nccc(C(c2ccc(F)cc2)N2CCN(c3c(C#N)c(=O)n(C)c4ccc(C#N)nc34)C[C@H]2C)n1` (stereo partly drawn) [Example 315, 8-((3R)-4-((4-fluorophenyl)(2-methylpyrimidin-4-yl)methyl)-3-methylpiperazin-1-yl)-5-methyl-6-oxo-5,6-dihydro-1,5-naphthyridine-2,7-dicarbonitrile], the IC50 in experiment [1] was 4.1 µM; in experiment [2], 1.8 µM.

For `Cc1nccc(C(c2ccc(F)cc2)N2CCN(c3c(C#N)c(=O)n(C)c4ccc(C#N)nc34)C[C@H]2C)n1` (stereo partly drawn) [Example 316, 8-((3R)-4-((4-fluorophenyl)(2-methylpyrimidin-4-yl)methyl)-3-methylpiperazin-1-yl)-5-methyl-6-oxo-5,6-dihydro-1,5-naphthyridine-2,7-dicarbonitrile], the IC50 in experiment [1] stood at 2.4 µM; in experiment [2] it was 0.93 µM.

Broadly, the IC50 is the concentration at which inhibition is half-maximal.

These data come from US10669272B2, “Substituted naphthyridinone compounds useful as T cell activators” (BRISTOL-MYERS SQUIBB COMPANY, priority 2018, dated 2020).
